Among the data in patent US8420657B2 (Novartis AG, priority 2008, dated 2013) are IC50 values, retold here.

One experiment deals with JAK2-dependent nuclear translocation of STAT5-GFP in U-2 OS osteosarcoma cells. Put plainly: STAT5 nuclear translocation assay (Cellomics), rhEpo stimulated U-2 OS STAT5-GFP cells. The format is cell-based. To be noted: Homo sapiens, U2OS; STAT5 translocation pathway. The method, boiled down: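 U-2 OS cells stably expressing STAT5a-GFP and EpoR pre-treated with compound (final 10 μM to 0.003 μM, 0.1% DMSO) for 30 min at 37° C., then stimulated 1 h with 5 U/ml rhEpo. Nuclear-cytoplasmic GFP differential quantified by automated imaging (≥1000 cells/well, Hoechst nuclear mask). IC50 from % translocation normalized to untreated and DMSO-stimulated controls.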
As a reminder, the IC50 is the concentration that gives 50% inhibition. A low value points to higher potency. `Cc1ccc(Nc2ncc3ccn(-c4cc(F)c(CN5CCOCC5)c(F)c4)c3n2)cc1CN1CCNCC1` [Example 332, [7-(3,5-Difluoro-4-morpholin-4-ylmethyl-phenyl)-7H-pyrrolo[2,3-d]pyrimidin-2-yl]-(4-methyl-3-piperazin-1-ylmethyl-phenyl)-amine] gave an IC50 of 73 nM.

With `Fc1cc(-n2ccc3cnc(Nc4ccnc(CN5CCNCC5)c4)nc32)cc(F)c1CN1CCOCC1` [Example 372, [7-(3,5-Difluoro-4-morpholin-4-ylmethyl-phenyl)-7H-pyrrolo[2,3-d]pyrimidin-2-yl]-(2-piperazin-1-ylmethyl-pyridin-4-yl)-amine], the IC50 was found to be 57 nM.

`C[C@@H]1CN(c2ccc(Nc3ncc4ccn(-c5ccc(NS(C)(=O)=O)cc5)c4n3)cn2)C[C@H](C)N1` [Example 380, N-(4-{2-[6-(cis-3,5-Dimethyl-piperazin-1-yl)-pyridin-3-ylamino]-pyrrolo[2,3-d]pyrimidin-7-yl}-phenyl)-methanesulfonamide] came in with an IC50 of 46 nM.

`Cc1ccc(Nc2ncc3ccn(-c4cc(F)c(CN5CCNC(=O)C5)c(F)c4)c3n2)cc1CN1CCNCC1` [Example 382, 4-{2,6-Difluoro-4-[2-(4-methyl-3-piperazin-1-ylmethyl-phenylamino)-pyrrolo[2,3-d]pyrimidin-7-yl]-benzyl}-piperazin-2-one] gave a half-maximal inhibitory concentration (IC50) of 121 nM. This IC50 is about 2.6-fold higher than that of the molecule before.

Molecule `CN1CCN(c2ccc(Nc3ncc4ccn(-c5cc(F)c(CN6CCS(=O)(=O)CC6)c(F)c5)c4n3)nc2)CC1` [Example 440, {7-[4-(1,1-Dioxido-thiomorpholin-4-ylmethyl)-3,5-difluoro-phenyl]-7H-pyrrolo[2,3-d]pyrimidin-2-yl}-[5-(4-methyl-piperazin-1-yl)-pyridin-2-yl]-amine] yielded a 50% inhibitory concentration (IC50) of 61 nM.

Molecule `COCc1c(F)cc(-n2ccc3cnc(Nc4ccc(N5CCN(C)CC5)nc4)nc32)cc1F` [Example 446, [7-(3,5-Difluoro-4-methoxymethyl-phenyl)-7H-pyrrolo[2,3-d]pyrimidin-2-yl]-[6-(4-methyl-piperazin-1-yl)-pyridin-3-yl]-amine] gave an IC50 of 1.3 nM.

Turning to `CC1(C)NCCN(c2cc(Nc3ncc4ccn(-c5cc(F)c(CN6CCOCC6)c(F)c5)c4n3)ccn2)C1=O` [Example 503, 1-{4-[7-(3,5-Difluoro-4-morpholin-4-ylmethyl-phenyl)-7H-pyrrolo[2,3-d]pyrimidin-2-ylamino]-pyridin-2-yl}-3,3-dimethyl-piperazin-2-one], the midpoint of inhibition, the IC50, lay at 27.5 nM.

The next experiment deals with JAK1/JAK2-dependent nuclear translocation of STAT1-GFP in HT1080 fibrosarcoma cells. Put plainly: STAT1 nuclear translocation assay (Cellomics), IFN-γ stimulated HT1080 STAT1-GFP cells. In kind it is cell-based. To be noted: Homo sapiens, HT-1080, STAT1 translocation pathway. Summed up: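 IC50 derived from percent nuclear STAT1-GFP translocation, computed from nuclear minus cytoplasmic GFP intensity against untreated baseline and DMSO-stimulated control. Stable HT1080 STAT1-GFP cells received compound (0.003–10 μM, 0.1% DMSO) 30 min ahead of a 2 h 100 ng/ml IFN-γ stimulus, then fixation and Hoechst nuclear masking.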
Molecule `CC(C)Oc1ccc(Nc2ncc3ccn(-c4ccc(C#N)cc4)c3n2)cc1` [Example 96, 4-[2-(4-Isopropoxy-phenylamino)-pyrrolo[2,3-d]pyrimidin-7-yl]-benzonitrile] came in with an IC50 of 26200 nM.

For the molecule `COc1cc(Nc2ncc3ccn(-c4ccc(C(=O)N5CCOCC5)c(F)c4)c3n2)ccc1F` [Example 151, {2-Fluoro-4-[2-(4-fluoro-3-methoxy-phenylamino)-pyrrolo[2,3-d]pyrimidin-7-yl]-phenyl}-morpholin-4-yl-methanone], it took 228 nM to reach half-maximal inhibition (IC50).

`COCc1ccc(Nc2ncc3ccn(-c4cc(F)c(CN5CCS(=O)(=O)CC5)c(F)c4)c3n2)cc1` [Example 184, {7-[4-(1,1-Dioxido-thiomorpholin-4-ylmethyl)-3,5-difluoro-phenyl]-7H-pyrrolo[2,3-d]pyrimidin-2-yl}-(4-methoxymethyl-phenyl)-amine] yielded an IC50 of 35 nM.

In turn, `CN1CCN(C(=O)c2cccc(Nc3ncc4ccn(-c5cc(F)c(CN6CCOCC6)c(F)c5)c4n3)c2)CC1` [Example 203, {3-[7-(3,5-Difluoro-4-morpholin-4-ylmethyl-phenyl)-7H-pyrrolo[2,3-d]pyrimidin-2-ylamino]-phenyl}-(4-methyl-piperazin-1-yl)-methanone] displayed an IC50 of 412 nM.

Take `Cc1ccc(Nc2ncc3ccn(-c4ccc(C(=O)N5CCOCC5)cc4)c3n2)cn1` [Example 238, {4-[2-(6-Methyl-pyridin-3-ylamino)-pyrrolo[2,3-d]pyrimidin-7-yl]-phenyl}-morpholin-4-yl-methanone]: the half-inhibitory concentration (IC50) amounted to 785 nM.

In turn, `Cc1ccc(Nc2ncc3ccn(-c4ccc(C(=O)N5CCN(CCO)CC5)cc4)c3n2)cc1C` [Example 300, {4-[2-(3,4-Dimethyl-phenylamino)-pyrrolo[2,3-d]pyrimidin-7-yl]-phenyl}-[4-(2-hydroxy-ethyl)-piperazin-1-yl]-methanone] gave a concentration for half-maximal inhibition (IC50) of 2030 nM. This IC50 lies about 2.6-fold higher than the previous one.

Take `Cn1cc(Nc2ncc3ccn(-c4ccc(CC(=O)N5CCOCC5)cc4)c3n2)cn1` [Example 301, 2-{4-[2-(1-Methyl-1H-pyrazol-4-ylamino)-pyrrolo[2,3-d]pyrimidin-7-yl]-phenyl}-1-morpholin-4-yl-ethanone]: the IC50 was 50 nM. Against the preceding molecule, the IC50 is about 41-fold lower.

As to `Cc1cc(Nc2ncc3ccn(-c4ccc(C(=O)N5CCOCC5)c(F)c4)c3n2)nn1C` [Example 311, {4-[2-(1,5-Dimethyl-1H-pyrazol-3-ylamino)-pyrrolo[2,3-d]pyrimidin-7-yl]-2-fluoro-phenyl}-morpholin-4-yl-methanone], half-maximal inhibition (IC50) required 1400 nM.

The molecule `Cc1ccc(Nc2ncc3ccn(-c4cc(F)c(CN5CCOCC5)c(F)c4)c3n2)cc1CN1CCNCC1` [Example 332, [7-(3,5-Difluoro-4-morpholin-4-ylmethyl-phenyl)-7H-pyrrolo[2,3-d]pyrimidin-2-yl]-(4-methyl-3-piperazin-1-ylmethyl-phenyl)-amine] showed an IC50 of 375 nM.

Molecule `COCc1c(F)cc(-n2ccc3cnc(Nc4ccc(N5CCN(C)CC5)nc4)nc32)cc1F` [Example 446, [7-(3,5-Difluoro-4-methoxymethyl-phenyl)-7H-pyrrolo[2,3-d]pyrimidin-2-yl]-[6-(4-methyl-piperazin-1-yl)-pyridin-3-yl]-amine] yielded an IC50 of 50 nM. This IC50 is about 7.5-fold lower than that of the molecule before.
